Source: ChEMBL document CHEMBL1201862, “PubChem BioAssay data set” (2004)
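Five concentrations, 48 hours, 96-well plates. GI50 marks 50% less growth.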 Activity calls are given as the source filed them. Rule as the data show it: active = GI50 up to about 1.1 µM and inactive = higher.

How the values were obtained:
Assay in all cases: DTP human tumour cell line panel, 48 h
HT-29 = tested on: HT-29
SN12C = tested on: SN12C
U-251 = tested on: U-251
IGROV-1 = tested on: IGROV-1
SK-MEL-5 = tested on: SK-MEL-5
NCI-H23 = tested on: NCI-H23
CCRF-CEM = tested on: CCRF-CEM
SK-OV-3 = tested on: SK-OV-3
DU-145 = tested on: DU-145
BT-549 = tested on: BT-549
TK-10 = tested on: TK-10
SF-539 = tested on: SF-539
K562 = tested on: K562
T47D = tested on: T47D
NCI/ADR-RES = tested on: NCI/ADR-RES
ACHN = tested on: ACHN
NCI-H226 = tested on: NCI-H226

Measured: GI50

CO[C@](C(=O)OC[C@H]1[C@@H](COC(C)=O)[C@@H]2O[C@H]1c1cc3c(cc12)OCO3)(c1ccccc1)C(F)(F)F
inactive: HT-29 39.2 µM | SN12C 25.1 µM | U-251 36.5 µM | IGROV-1 12.7 µM | SK-MEL-5 32.9 µM | NCI-H23 19.1 µM | CCRF-CEM 7.19 µM | SK-OV-3 89.7 µM | DU-145 34.9 µM | BT-549 22.9 µM | TK-10 38.3 µM

COc1ccc2oc3c(ccc[n+]3C)c(=O)c2c1
inactive: HT-29 > 100 µM | SN12C > 100 µM | U-251 > 100 µM | IGROV-1 > 100 µM | SK-MEL-5 > 100 µM | SF-539 > 100 µM | K562 > 100 µM | T47D > 100 µM | NCI/ADR-RES > 100 µM | NCI-H23 > 100 µM | CCRF-CEM > 100 µM | SK-OV-3 > 100 µM | DU-145 > 100 µM | ACHN > 100 µM | TK-10 > 100 µM | NCI-H226 > 100 µM

Cc1cccc2sc(-c3ccc(O)cc3)nc12
inactive: HT-29 15.3 µM | SN12C 18.2 µM | U-251 19.3 µM | IGROV-1 13.7 µM | SK-MEL-5 5.81 µM | SF-539 21.5 µM | K562 33.3 µM | NCI/ADR-RES 19.3 µM | NCI-H23 16.5 µM | CCRF-CEM 16.9 µM | SK-OV-3 19.6 µM | DU-145 17.8 µM | ACHN 16.5 µM | BT-549 11.8 µM | TK-10 22.5 µM | NCI-H226 14.8 µM

CS(=O)(=O)c1ccc2nc(-c3ccc(O)cc3)sc2c1
inactive: HT-29 13.2 µM | SN12C 17.5 µM | U-251 19 µM | IGROV-1 19.2 µM | SK-MEL-5 17.4 µM | SF-539 11 µM | K562 33.8 µM | NCI/ADR-RES 13.8 µM | NCI-H23 19 µM | CCRF-CEM 25.2 µM | SK-OV-3 17.5 µM | DU-145 15.7 µM | ACHN 17.9 µM | BT-549 16.4 µM | TK-10 16.3 µM | NCI-H226 18.5 µM

COc1ccc2c(=O)c(O)c(-c3ccc(OC)c(OC)c3)oc2c1
inactive: HT-29 4.92 µM | U-251 3.52 µM | IGROV-1 7.45 µM | SK-MEL-5 5.5 µM | K562 4.53 µM | T47D > 100 µM | NCI/ADR-RES 2.23 µM | CCRF-CEM 2.36 µM | SK-OV-3 5.42 µM | DU-145 4.04 µM | ACHN 3.54 µM | TK-10 4.91 µM
